Source: patent US20220273590A1, “COMPOUNDS FOR PREVENTION AND TREATMENT OF POST-OPERATIVE COGNITIVE DYSFUNCTION” (ABREXA PHARMACEUTICALS, INC., priority 2019, published 2022)
“And” between values parts separate entries of the source, which are not always exact repeats. Equal entries are not always repeated. Where two headings read alike, the source gives them in different places.

Columns and labels:
[1] = Plasma levels of J147 at the time of surgery; type: in vivo, Wistar rats; settings: absence of an appropriate peak taken as zero
Experimental: Male Wistar rats (˜350 g) were randomly divided into 4 experimental groups; non-surgery; control abdominal surgery; surgery+acute J147 treatment (7 mg/rat by gavage, 4-5 hours before surgery); surgery+chronic J147 (500 mg/kg food, 1 week before surgery until the end of the study). Timed blood samples were collected. Days 9-11 post surgery, general behavior (Open field: OF) and cognitive performance (Novel Object/Novel Location Recognition: NOR/NLR; Morris Water Maze: MWM) were tested. Day 14, rats were sacrificed and blood and brain tissue were collected for further analyses. (Neuro)inflammation was examined by circulating cytokine levels and microglia activation in the brain.
One week before surgery, chronic treatment J147 treatment started and continued until the end of the experiment. The day of surgery, rats for acute treatment received their J147 (4-5 hours before surgery) by gavage, while the designated control rats received vehicle gavage. Rats were subjected to abdominal surgery, and allowed to recover. After that rats were housed individually. […] The first week post-surgery, rats were weighed daily and food intake was measured. […]
For chronic oral treatment, J147 was added to the food (Teklad 2018, Envigo) at a concentration of 500 mg/kg. […] After surgery food intake was measured daily during the last hour of the light phase. […]

[2] = Pharmacokinetic plasma parameters of J147, oral and intravascular administration; type: in vivo, Adult Wister Rats; settings: for FInf: calculated based on AUCInf; for Flast: calculated based on AUClast
Experimental: Plasma samples obtained during surgery in J147-treated rats and 3 control rats were measured for circulating levels of J147. Results of pharmacokinetic measures of both plasma and brain levels of J147 in rats following oral administration of J147 in basis suspension at 20 mg/kg and also following intravascular administration at 5 mg/kg are shown in Table 2A-C below. When taking the absence of an appropriate peak as zero, mean concentration is 0 ng/ml in controls, 3.103 ng/ml in acutely treated rats and 0.233 ng/ml in chronically treated rats. J147 levels in food were verified as well (467 mg/kg). […] During the first 10 days after surgery and individual housing, rats on the diet ate on average 20±1 g, which was similar to the 20±1 g in surgery with control food and 23±1 g in non-surgery controls, verifying the anticipated intake of 10 mg J147/rat/day and further supporting no preference or aversion for the diet food.

[3] = IV 5 mg/kg, 1 mg/mL in DMSO/PEG 200/Saline 5/70/25, individual animals (1148, 1154, 1156, 1158), 5 mg/kg
[4] = IV 5 mg/kg, individual animals (1148, 1154, 1156, 1158), 5 mg/kg
[5] = PO_A 20 mg/kg, 7 mg/mL in Basis, individual animals (1142, 1144, 1150, 1166), 20 mg/kg
[6] = PO_A 20 mg/kg, individual animals (1142, 1144, 1150, 1166), 20 mg/kg
[7] = Wistar, rat, plasma, iv, 5 mg/kg, IV 5 mg/kg, Mean of 4 animals
[8] = Wistar, rat, plasma, po, 20 mg/kg, PO_B (oral, Basis), Mean

For `COc1cccc(/C=N/N(C(=O)C(F)(F)F)c2ccc(C)cc2C)c1` [J147], the “mean concentration of J147 in plasma during surgery” value ([1]; acute J147, 7 mg/rat by gavage 4-5 hours before surgery) was 3.103 ng/mL, the concentration at 1 week ([1]; male, Wistar, rat, plasma, oral, chronic J147, 500 mg/kg food from 1 week before surgery, read-out: mean concentration of J147 in plasma during surgery) was 0.233 ng/mL and the C0 [2, 3] was 4706 ng/mL and 384 ng/mL and 1572 ng/mL and 2509 ng/mL. For the same compound, the Cl_obs [2, 3] was 90.2 mL/min/kg and 98.9 mL/min/kg and 107 mL/min/kg, the Tmax [2, 3] was 4.98 min and 15 min and the t1/2 [2, 3] was 64.8 min and 57.8 min and 51.1 min. For the same compound, the “AUC_% Ex Trap” value ([2]; IV 5 mg/kg, Mean of 4 animals) was 1.58%, the Cl_obs ([2]; IV 5 mg/kg, Mean of 4 animals) was 77.4 mL/min/kg and the vss_obs ([2]; IV 5 mg/kg, Mean of 4 animals) was 5.18 L/kg. The AUCInf [2, 4] was 842 ng·h/mL and 631 ng·h/mL and 781 ng·h/mL, the “AUC_% Ex Trap” value [2, 4] was 1.14% and 2.31% and 1.89% and 0.979% and the MRT [2, 4] was 55.6 min and 44.1 min and 34.3 min. For the same compound, the vss_obs [2, 4] was 3.39 L/kg and 6.41 L/kg and 6.82 L/kg and 4.07 L/kg, the AUClast ([2]; IV 5 mg/kg, last time point 6 h, Mean of 4 animals) was 782 ng·mL·h and the AUClast ([2]; IV 5 mg/kg, last time point 6 h, individual animals (1148, 1154, 1156, 1158), 5 mg/kg) was 913 ng·mL·h and 823 ng·mL·h and 619 ng·mL·h and 774 ng·mL·h. For the same compound, the Cmax [2, 5] was 29.0 ng/mL and 39.9 ng/mL and 36.5 ng/mL and 69.2 ng/mL, the t1/2 [2, 5] was 96.6 min and 70.8 min and the “AUC_% Ex Trap” value ([2]; PO_A 20 mg/kg, Mean) was 7.60%. For the same compound, the FInf ([2]; PO_A 20 mg/kg, Mean) was 4.29%, the FInf [2, 6] was 2.64% and 2.72% and 7.50% and the Flast ([2]; PO_A 20 mg/kg, Mean) was 3.61%. The Flast [2, 6] was 2.45% and 2.23% and 2.51% and 7.25%, the AUCInf [2, 6] was 82.5 ng·h/mL and 91.5 ng·h/mL and 189 ng·h/mL and the “AUC_% Ex Trap” value [2, 6] was 7.91% and 9.72% and 5.17%. For the same compound, the AUClast ([2]; PO_A 20 mg/kg, last time point 6 h, Mean) was 105 ng·mL·h, the AUClast ([2]; PO_A 20 mg/kg, last time point 6 h, individual animals (1142, 1144, 1150, 1166), 20 mg/kg) was 76.0 ng·mL·h and 81.6 ng·mL·h and 82.6 ng·mL·h and 180 ng·mL·h and the “AUC_% Ex Trap” value ([2]; PO_B (oral, Basis), Mean) was 15.9%. For the same compound, the AUClast ([2]; PO_B (oral, Basis), last time point 4 h, Mean) was 64.7 ng·mL·h, the half-life ([2]; Wistar, rat, plasma, iv, 5 mg/kg, IV 5 mg/kg, 1 mg/mL in DMSO/PEG 200/Saline 5/70/25, individual animals (1148, 1154, 1156, 1158)) was 63.6 min and the AUC(0-inf) [2, 7] was 795 ng·h/mL. For the same compound, the half-life [2, 7] was 59.2 min, the C0 ([2]; Wistar, rat, plasma, iv, 5 mg/kg, IV 5 mg/kg, Mean of 4 animals, read-out: C0) was 2290 ng/mL and the MRT ([2]; Wistar, rat, plasma, iv, 5 mg/kg, IV 5 mg/kg, Mean of 4 animals, read-out: MRT) was 41.7 min. It also gave a Tmax ([2]; Wistar, rat, plasma, iv, 5 mg/kg, IV 5 mg/kg, Mean of 4 animals, read-out: tmax) of 7.5 min, an AUC(0-inf) ([2]; Wistar, rat, plasma, iv, 5 mg/kg, IV 5 mg/kg, individual animals (1148, 1154, 1156, 1158)) of 924 ng·h/mL and an MRT ([2]; Wistar, rat, plasma, iv, 5 mg/kg, IV 5 mg/kg, individual animals (1148, 1154, 1156, 1158), read-out: MRT) of 32.8 min. It also gave a half-life ([2]; Wistar, rat, plasma, po, 20 mg/kg, PO_A 20 mg/kg, 7 mg/mL in Basis, Mean) of 84.6 min, a Cmax ([2]; Wistar, rat, plasma, po, 20 mg/kg, PO_A 20 mg/kg, 7 mg/mL in Basis, Mean, read-out: Cmax) of 43.7 ng/mL and a Tmax ([2]; Wistar, rat, plasma, po, 20 mg/kg, PO_A 20 mg/kg, 7 mg/mL in Basis, Mean, read-out: tmax) of 52.8 min. The half-life ([2]; Wistar, rat, plasma, po, 20 mg/kg, PO_A 20 mg/kg, 7 mg/mL in Basis, individual animals (1142, 1144, 1150, 1166)) was 87 min, the Tmax ([2]; Wistar, rat, plasma, po, 20 mg/kg, PO_A 20 mg/kg, 7 mg/mL in Basis, individual animals (1142, 1144, 1150, 1166), read-out: tmax) was 60 min and the AUC(0-inf) ([2]; Wistar, rat, plasma, po, 20 mg/kg, PO_A 20 mg/kg, Mean) was 121 ng·h/mL. It also gave an AUC(0-inf) [2, 8] of 76.9 ng·h/mL, a half-life [2, 8] of 85.2 min and a Cmax ([2]; Wistar, rat, plasma, po, 20 mg/kg, PO_B (oral, Basis), Mean, read-out: Cmax) of 47.4 ng/mL. It also gave a Tmax ([2]; Wistar, rat, plasma, po, 20 mg/kg, PO_B (oral, Basis), Mean, read-out: tmax) of 30 min.
